The target in the first assay is T1, recombinant human NAE enzyme (Homo sapiens, UniProt Q8TBC4).
T1 construct: His (N); made in house; host or cells: Sf9 insect cells (baculovirus, Bac-to-Bac)
T1 sequence (Q8TBC4 1-463): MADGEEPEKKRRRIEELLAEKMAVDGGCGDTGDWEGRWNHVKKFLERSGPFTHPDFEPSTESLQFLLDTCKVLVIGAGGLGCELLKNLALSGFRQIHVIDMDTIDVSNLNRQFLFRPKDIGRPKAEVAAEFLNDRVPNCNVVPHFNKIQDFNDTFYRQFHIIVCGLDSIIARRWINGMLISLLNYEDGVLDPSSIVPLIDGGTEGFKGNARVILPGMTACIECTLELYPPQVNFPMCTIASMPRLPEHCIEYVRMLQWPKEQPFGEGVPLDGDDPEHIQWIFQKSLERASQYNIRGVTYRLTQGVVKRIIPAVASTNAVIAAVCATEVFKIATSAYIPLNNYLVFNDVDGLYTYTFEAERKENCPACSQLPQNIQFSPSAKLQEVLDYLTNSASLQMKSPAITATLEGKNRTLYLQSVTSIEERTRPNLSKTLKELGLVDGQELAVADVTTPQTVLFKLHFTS
T1 sequence (Q13564 1-534 partner): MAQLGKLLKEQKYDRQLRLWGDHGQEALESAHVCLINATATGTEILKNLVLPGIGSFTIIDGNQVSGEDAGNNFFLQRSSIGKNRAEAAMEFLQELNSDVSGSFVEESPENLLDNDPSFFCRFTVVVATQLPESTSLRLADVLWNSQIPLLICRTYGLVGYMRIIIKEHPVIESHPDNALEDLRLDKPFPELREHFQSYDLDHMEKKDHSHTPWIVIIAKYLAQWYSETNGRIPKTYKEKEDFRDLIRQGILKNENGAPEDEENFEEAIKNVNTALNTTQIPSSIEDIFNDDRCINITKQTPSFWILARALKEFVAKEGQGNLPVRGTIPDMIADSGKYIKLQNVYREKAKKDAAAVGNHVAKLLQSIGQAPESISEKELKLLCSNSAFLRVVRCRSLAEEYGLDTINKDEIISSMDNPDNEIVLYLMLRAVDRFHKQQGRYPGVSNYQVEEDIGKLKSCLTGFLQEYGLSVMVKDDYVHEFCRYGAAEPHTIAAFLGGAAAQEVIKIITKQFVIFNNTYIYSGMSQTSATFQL
Description: Nedd8-Activating Enzyme (NAE) HTRF Assay. Type of assay: biochemical. The conditions noted are these: 20 μM ATP, bound given in nM. Summed up: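 Recombinant human NAE (NAEα/His-NAEβ from Sf9 cells) at 0.20 nM with 20 μM ATP, 0.01 μM Ubc12-GST and 0.075 μM Nedd8-Flag in HEPES pH 7.5, 105 min at 24° C. EDTA stop; Eu-anti-FLAG/APC-anti-GST HTRF read after 1 h.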
The term IC50 denotes the concentration needed to halve the response being measured. For the compound `NS(=O)(=O)OC[C@@H]1C[C@@H](Nc2ncnc3[nH]c(C4CCCCC4)nc23)C[C@@H]1O` [Compound I-128, {(1S,2S,4R)-4-[(8-cyclohexyl-9H-purin-6-yl)amino]-2-hydroxycyclopentyl}methyl sulfamate], the concentration for half-maximal inhibition (IC50) was at most 500 nM.
On to `NS(=O)(=O)OC[C@H]1C[C@@H](Nc2cc(N[C@H]3CCc4c(F)ccc(F)c43)ncn2)[C@H](O)[C@@H]1O` [Compound I-6, {(1R,2R,3S,4R)-4-[(6-{[(1S)-4,7-difluoro-2,3-dihydro-1H-inden-1-yl]amino}-pyrimidin-4-yl)amino]-2,3-dihydroxycyclopentyl}methyl sulfamate], for which the half-inhibitory concentration (IC50) is at most 500 nM.
`OC[C@@H]1C[C@@H](Nc2ncnc3[nH]c(-c4cccc5c4OCCO5)nc23)C[C@@H]1O` [Compound I-138, (1S,2S,4R)-4-{[8-(2,3-dihydro-1,4-benzodioxin-5-yl)-9H-purin-6-yl]amino}-2-(hydroxymethyl)cyclopentanol]: the concentration for half-maximal inhibition (IC50) is over 500 nM.
`NS(=O)(=O)OC[C@@H]1C[C@@H](Oc2ncnc3[nH]c(-c4ccccc4)nc23)C[C@@H]1O` [Compound I-63, {(1S,2S,4R)-2-hydroxy-4-[(8-phenyl-9H-purin-6-yl)oxy]cyclopentyl}methyl sulfamate]: the IC50 is at most 500 nM.
In the case of `CO[C@H]1Cc2ccccc2[C@H]1Nc1cc(N[C@@H]2C[C@@H](COS(N)(=O)=O)[C@@H](O)C2)ncn1` [Compound I-47, {(1S,2S,4R)-2-hydroxy-4-[(6-{[(1R,2S)-2-methoxy-2,3-dihydro-1H-inden-1-yl]-amino}pyrimidin-4-yl)amino]cyclopentyl}methyl sulfamate], the IC50 was at most 500 nM.
As to `NS(=O)(=O)OC[C@@H]1C[C@@H](Nc2c(Cl)cnc3[nH]c(-c4cccc5ccccc45)nc23)C[C@@H]1O` [Compound I-56, ((1S,2S,4R)-4-{[6-chloro-2-(1-naphthyl)-3H-imidazo[4,5-b]pyridin-7-yl]amino}-2-hydroxycyclopentyl)methyl sulfamate], the half-inhibitory concentration (IC50) is at most 500 nM.
On the same count and under the same terms, the result for `NS(=O)(=O)OC[C@@H]1C[C@@H](Nc2ncnc(N[C@H]3CCc4ccccc43)n2)C[C@@H]1O` [Compound I-153, [(1S,2S,4R)-4-({4-[(1S)-2,3-dihydro-1H-inden-1-ylamino}-1,3,5-triazin-2-yl}amino)-2-hydroxycyclopentyl]methyl sulfamate] reads at most 500 nM; that for `C[C@H]1Cc2ccccc2[C@H]1Nc1cc(O[C@@H]2C[C@@H](COS(N)(=O)=O)[C@@H](O)C2)ncn1` [Compound I-43, {(1S,2S,4R)-2-hydroxy-4-[(6-{[(1S,2S)-2-methyl-2,3-dihydro-1H-inden-1-yl]-amino}pyrimidin-4-yl)oxy]cyclopentyl}methyl sulfamate], at most 500 nM; that for `NS(=O)(=O)OC[C@@H]1C[C@@H](Nc2cc(N[C@H]3CCc4ccccc43)nc(=O)[nH]2)C[C@@H]1O` [Compound I-54, [(1S,2S,4R)-4-({6-[(1S)-2,3-dihydro-1H-inden-1-ylamino]-2-oxo-2,3-dihydropyrimidin-4-yl}amino)-2-hydroxycyclopentyl]methyl sulfamate], over 500 nM.
With `CO[C@@H]1CCc2ccccc2[C@@H]1Nc1cc(O[C@@H]2C[C@@H](COS(N)(=O)=O)[C@@H](O)C2)ncn1` [Compound I-143, {(1S,2S,4R)-2-hydroxy-4-[(6-{[(1S,2R)-2-methoxy-1,2,3,4-tetrahydronaphthalen-1-yl]amino}pyrimidin-4-yl)oxy]cyclopentyl}methyl sulfamate], the IC50 was at most 500 nM.
On to `CC1CC(Nc2nccc(N[C@@H]3C[C@H](COS(N)(=O)=O)[C@@H](O)[C@H]3O)n2)c2ccccc21` (stereo partly drawn) [Compound I-10, [(1R,2R,3S,4R)-2,3-dihydroxy-4-({2-[(3-methyl-2,3-dihydro-1H-inden-1-yl)-amino]pyrimidin-4-yl}amino)cyclopentyl]methyl sulfamate], for which the 50% inhibitory concentration (IC50) is at most 500 nM.
For `NS(=O)(=O)OC[C@H]1C[C@@H](Nc2ncnc(N[C@H]3CCc4ccccc43)n2)[C@H](O)[C@@H]1O` [Compound I-26, [(1R,2R,3S,4R)-4-({4-[(1S)-2,3-dihydro-1H-inden-1-ylamino]-1,3,5-triazin-2-yl}-amino)-2,3-dihydroxycyclopentyl]methyl sulfamate], the IC50 was at most 500 nM.
Take `CO[C@H]1CC(C)(C)c2ccccc2[C@H]1Nc1cc(O[C@@H]2C[C@@H](COS(N)(=O)=O)[C@@H](O)C2)ncn1` [Compound I-150, {(1S,2S,4R)-2-hydroxy-4-[(6-{[(1R,2S)-2-methoxy-4,4-dimethyl-1,2,3,4-tetrahydronaphthalen-1-yl]amino}pyrimidin-4-yl)oxy]cyclopentyl}methyl sulfamate]: the half-maximal inhibitory concentration (IC50) was at most 500 nM.
On to `CC1(C)C[C@H](Nc2cc(O[C@@H]3C[C@@H](COS(N)(=O)=O)[C@@H](O)C3)ncn2)c2ccccc21` [Compound I-124, {(1S,2S,4R)-4-[(6-{[(1S)-3,3-dimethyl-2,3-dihydro-1H-inden-1-yl]amino}pyrimidin-4-yl)oxy]-2-hydroxycyclopentyl}methyl sulfamate], for which the IC50 is at most 500 nM.
On the same count and under the same terms, with `NS(=O)(=O)OC[C@@H]1C[C@@H](Nc2ncnc3[nH]c(-c4cccc(Cl)c4)nc23)C[C@@H]1O` [Compound I-60, ((1S,2S,4R)-4-{[8-(3-chlorophenyl)-9H-purin-6-yl]amino}-2-hydroxycyclopentyl)methyl sulfamate] the figure was at most 500 nM; with `CO[C@H]1Cc2ccccc2[C@H]1Nc1cc(O[C@@H]2C[C@@H](CNS(N)(=O)=O)[C@@H](O)C2)ncn1` [Compound I-82, N-({(1S,2S,4R)-2-hydroxy-4-[(6-{[(1R,2S)-2-methoxy-2,3-dihydro-1H-inden-1-yl]amino}pyrimidin-4-yl)oxy]cyclopentyl}methyl)sulfamide], at most 500 nM.
Regarding `Cc1cccc(S(=O)(=O)c2nc3c(O[C@@H]4C[C@@H](COS(N)(=O)=O)[C@@H](O)C4)ncnc3[nH]2)c1` [Compound I-101, [(1S,2S,4R)-2-hydroxy-4-({8-[(3-methylphenyl)sulfonyl]-9H-purin-6-yl}oxy)cyclopentyl]methyl sulfamate], the IC50 is at most 500 nM.
Turning to `NS(=O)(=O)OC[C@@H]1C[C@@H](Oc2cc(Cc3ccccc3)ncn2)C[C@@H]1O` [Compound I-132, {(1S,2S,4R)-4-[(6-benzylpyrimidin-4-yl)oxy]-2-hydroxycyclopentyl}methyl sulfamate], the IC50 was over 500 nM.
For `NS(=O)(=O)OC[C@@H]1C[C@@H](Oc2ncnc3nc(-c4ccc(N5CCCC5)c5ccccc45)[nH]c23)C[C@@H]1O` [Compound I-139, ((1S,2S,4R)-2-hydroxy-4-{[8-(4-pyrrolidin-1-yl-1-naphthyl)-7H-purin-6-yl]oxy}cyclopentyl)methyl sulfamate], the half-inhibitory concentration (IC50) was at most 500 nM.

Staying with this assay, now noted: 20 μM ATP, bound given in μM.
Consider `OC[C@@H]1C[C@@H](Nc2ncnc3[nH]c(-c4cccc5c4OCCO5)nc23)C[C@@H]1O` [Compound I-138, (1S,2S,4R)-4-{[8-(2,3-dihydro-1,4-benzodioxin-5-yl)-9H-purin-6-yl]amino}-2-(hydroxymethyl)cyclopentanol], for which the IC50 is under 10000 nM.
As for `NS(=O)(=O)OC[C@@H]1C[C@@H](Nc2cc(N[C@H]3CCc4ccccc43)nc(=O)[nH]2)C[C@@H]1O` [Compound I-54, [(1S,2S,4R)-4-({6-[(1S)-2,3-dihydro-1H-inden-1-ylamino]-2-oxo-2,3-dihydropyrimidin-4-yl}amino)-2-hydroxycyclopentyl]methyl sulfamate], the IC50 was under 10000 nM.
On to `NS(=O)(=O)OC[C@H]1C[C@@H](O)[C@H](Nc2cc(N[C@H]3CCc4ccccc43)ncn2)C1` [Compound I-58, [(1R,3R,4R)-3-({6-[(1S)-2,3-dihydro-1H-inden-1-ylamino]pyrimidin-4-yl}-amino)-4-hydroxycyclopentyl]methyl sulfamate], for which the IC50 is over 10000 nM.
Consider `CN(Cc1ccccc1)c1nccc(N[C@@H]2C[C@H](COS(N)(=O)=O)[C@@H](O)[C@H]2O)n1` [Compound I-20, [(1R,2R,3S,4R)-4-({2-[benzyl(methyl)amino]pyrimidin-4-yl}amino)-2,3-dihydroxycyclopentyl]methyl sulfamate], for which the IC50 is over 10000 nM.
In the case of `NS(=O)(=O)OC[C@@H]1C[C@@H](Oc2cc(Cc3ccccc3)ncn2)C[C@@H]1O` [Compound I-132, {(1S,2S,4R)-4-[(6-benzylpyrimidin-4-yl)oxy]-2-hydroxycyclopentyl}methyl sulfamate], the IC50 is under 10000 nM.

Values taken from US9718788B2, “Heteroaryl compounds useful as inhibitors of E1 activating enzymes” (MILLENNIUM PHARMACEUTICALS, INC., priority 2006, dated 2017).
